In ChEMBL document CHEMBL1201862, “PubChem BioAssay data set” (2004):
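The compound was tested at five concentrations on cells cultured in 96-well plates, with a 48-hour exposure period. At the GI50, growth is halved.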 The source made the active and inactive calls. Rule as the data show it: active = GI50 up to about 1.1 µM and inactive = higher. Where a SMILES comes first, the peptide text is derived from it. The star is where a group is joined. Cbz = O=C(OCc1ccccc1)*; Boc = CC(C)(C)OC(=O)*; Bn = c1ccc(C*)cc1

Tests used:
Assay in all cases: growth of human tumour cells (NCI), 48 h
[1] = test system: SF-539
[2] = test system: ACHN
[3] = test system: CCRF-CEM
[4] = test system: NCI/ADR-RES
[5] = test system: HOP-92
[6] = test system: A549
[7] = test system: SK-OV-3
[8] = test system: SW-620
[9] = test system: MCF7
[10] = test system: OVCAR-5
[11] = test system: SN12C
[12] = test system: NCI-H460
[13] = test system: SNB-19
[14] = test system: KM12
[15] = test system: NCI-H23
[16] = test system: HL-60
[17] = test system: OVCAR-3
[18] = test system: SR

Measured: GI50

CN(C)c1ccc(-c2c(C#N)c(-c3ccccc3)n(NS(=O)(=O)c3ccccc3)c(=O)c2C#N)cc1
inactive: [1] 33.3 µM | [2] 45.8 µM | [3] 26.5 µM | [4] 57.3 µM | [5] 28.9 µM | [6] 42.9 µM | [7] 67.3 µM | [8] 43.3 µM | [9] 40.7 µM | [10] > 100 µM | [11] 68.9 µM | [12] 54.3 µM | [13] 24.8 µM | [14] 65.6 µM

CN1CCCCCC(=N\O)/C(=N/O)CCCCC1
inactive: [15] > 100 µM | [1] > 100 µM | [2] > 100 µM | [3] > 100 µM | [4] > 100 µM | [5] > 100 µM | [6] > 100 µM | [8] > 100 µM | [16] > 100 µM | [9] > 100 µM | [10] > 100 µM | [11] > 100 µM | [12] > 100 µM | [17] > 100 µM | [18] > 100 µM | [13] > 100 µM | [14] > 100 µM

O=c1c2cc([N+](=O)[O-])ccc2n2n1CCCCC2
inactive: [15] > 100 µM | [1] > 100 µM | [2] > 100 µM | [3] > 100 µM | [4] > 100 µM | [5] > 100 µM | [6] > 100 µM | [7] > 100 µM | [8] > 100 µM | [16] > 100 µM | [10] > 100 µM | [11] > 100 µM | [12] > 100 µM | [17] > 100 µM | [18] > 100 µM | [13] > 100 µM | [14] > 100 µM

COc1cc2c(cc1OCCCN1CCOCC1)N=C[C@@H]1CCCN1C2=O
inactive: [1] 4.7 µM | [2] 14 µM | [3] 2.75 µM | [4] 35 µM | [5] 2.37 µM | [6] 35.7 µM | [7] 10.8 µM | [8] 3.33 µM | [16] 5.74 µM | [9] 7.24 µM | [10] 15.5 µM | [11] 23.6 µM | [12] 24.5 µM | [17] 2.83 µM | [18] 3.57 µM | [13] 18.8 µM | [14] 13.4 µM

CC(C)(C)OC(=O)NC(Cc1ccc(OCc2ccccc2)cc1)C(=O)NC(CCCCNC(=O)OCc1ccccc1)C(=O)O (configuration not stated) (Boc-Tyr(Bn)-Lys(Cbz)-OH; configuration not given here)
inactive: [15] 29.2 µM | [3] > 100 µM | [5] 16.4 µM | [6] > 100 µM | [8] 49 µM | [16] 34.7 µM | [9] 34.6 µM | [10] > 100 µM | [11] 30.5 µM | [18] 28.6 µM | [13] 27.3 µM | [14] 28.2 µM
